Target: T1, Glucocorticoid receptor (Homo sapiens, UniProt P04150)
T1 sequence (P04150 whole entry): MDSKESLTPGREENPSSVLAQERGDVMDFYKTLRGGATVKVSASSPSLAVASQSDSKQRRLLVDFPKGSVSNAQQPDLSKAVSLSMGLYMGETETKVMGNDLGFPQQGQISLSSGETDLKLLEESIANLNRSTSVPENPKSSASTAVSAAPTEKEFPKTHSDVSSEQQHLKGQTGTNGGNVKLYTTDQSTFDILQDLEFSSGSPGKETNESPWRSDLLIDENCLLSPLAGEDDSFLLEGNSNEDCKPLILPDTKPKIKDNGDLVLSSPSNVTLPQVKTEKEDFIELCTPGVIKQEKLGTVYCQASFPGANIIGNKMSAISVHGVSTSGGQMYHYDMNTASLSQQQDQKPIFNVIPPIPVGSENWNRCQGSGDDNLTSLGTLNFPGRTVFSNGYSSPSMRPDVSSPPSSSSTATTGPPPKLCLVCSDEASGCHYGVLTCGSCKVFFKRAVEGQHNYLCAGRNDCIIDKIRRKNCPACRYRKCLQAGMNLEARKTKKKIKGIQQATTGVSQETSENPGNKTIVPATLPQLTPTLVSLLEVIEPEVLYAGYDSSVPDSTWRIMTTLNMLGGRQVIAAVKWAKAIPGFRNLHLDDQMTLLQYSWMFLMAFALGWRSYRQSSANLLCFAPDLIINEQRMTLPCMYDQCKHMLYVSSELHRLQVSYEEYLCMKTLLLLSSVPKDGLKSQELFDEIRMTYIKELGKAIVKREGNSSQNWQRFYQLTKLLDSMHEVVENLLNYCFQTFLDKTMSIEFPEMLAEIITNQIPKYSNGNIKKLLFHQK
Assay: Inhibition of glucocorticoid receptor

## C[C@@H]1C[C@H]2[C@@H]3CCC4=CC(=O)C=C[C@]4(C)[C@@]3(F)[C@@H](O)C[C@]2(C)[C@@]1(O)C(N)=O [OXDEX]
  IC50: 600 nM

## C[C@@H]1C[C@H]2[C@@H]3CCC4=CC(=O)C=C[C@]4(C)[C@@]3(F)[C@@H](O)C[C@]2(C)[C@@]1(O)C(=O)CSCCC(N)=O
  IC50: 36 nM

Reference: ChEMBL document CHEMBL1150407, “High-throughput evaluation of relative cell permeability between peptoids and peptides” (Bioorg Med Chem, 2008)
